How the values were obtained:
[1] = tested on: EMT-6 murine mammary carcinoma; assay type: in vivo, mice; conditions: EMT6/BLAB-c Mice; dose VNP40541 85-115 mpk, VNP40551 55-85 mpk
Experimental: (§1) The anti-tumor effects of aforementioned prodrugs are evaluated in both solid and liquid tumor models, including the B16-F10 murine melanoma, HTB177 human lung carcinoma models, DLD1 human colon carcinoma, EMT-6 murine mammary gland carcinoma, L1210 murine leukemia, lymphoma, prostate cancer, pancreatic cancer, and head-and-neck cancer. The prodrugs are given intravenously, orally, or intraperitoneally at doses from 10 mg/kg to 2000 mg/kg; they are give at different dosing schedules such as 4 times daily, once daily, or once every several days for up to 60 doses. Testing tumor cells were implanted subcutaneously into mice, which were randomized into groups immediately after tumor cell implantation (Day 0). Mice were injected intraperitoneally (ip) with either a bolus injection of 0.1 mL PBS or drug. The treatment was carried out in a designed dosing schedule. Tumor measurement in three dimensions was determined once a week with the formula L×H×W/2, where L, H, and W represent length, height, and width, respectively.
(§2) Efficacy of KS119 was studied in murine tumor model and human xenograft models. EMT-6 murine mammary carcinoma cells (3×10^5 cells/mouse) were implanted subcutaneously into Balb/c mice. H460 human lung carcinoma cells, HT29 human colon carcinoma cells and SHP77 human lung carcinoma cells were established as solid xenografts in nu/nu CD-1 mice and Scid/Beige mice with 7×10^7 cells/mouse, respectively. After implantation, tumors were allowed to grow to a size of 150 to 200 mm^3 before starting treatment with KS119. KS119 was formulated in a solvent containing polyethylene glycol 300 (PEG), ethyl alcohol, citric acid, and ascorbic acid.
(§3) Efficacies of KS119W and KS119 were compared with equivalence molar doses in EMT-6 tumor and H460 tumor models. KS119W was formulated with 0.25M sodium bicarbonate solution. The treatment was started when tumors researched 150 to 200 mm^3, and lasted up to 2 weeks. KS119 at doses of 80 and 100 mg/kg and KS119W at doses of 97.6 and 121.3 mg/kg were daily administrated into mice via ip injection. […] To assess the toxicity of treatment, body weight and peripheral blood cell count were monitored after treatment.
(§4) Combined therapy of KS119W with cytoxan (CTX) was evaluated by using KS119W at dose below the MTD in combination with nontoxic dose of CTX against EMT-6 murine mammary carcinoma and H460 human lung carcinoma in CD-1 nude mice. The tumors were allowed to grow to a size of approximately 200 mm^3. In H460 tumor model, the animals received either with 4 doses 180 mg/kg and 1 dose 240 mg/kg of KS119 or CTX at dose of 100 mg/kg per dose per animal, ip injecting the drugs on 15, 22, 27, 34 and 43 days after the tumor implantation. In the combination studies, CTX was given two hours after dosing KS119W.

[2] = tested on: H460 human lung carcinoma; assay type: in vivo, mice; conditions: H460/Nude Mice; dose VNP40541 80-140 mpk, VNP40551 40-80 mpk
Experimental: as §1, §2, §3, §4

[3] = Toxicity of treatment in tumor-bearing mice (body weight, blood cell count, appearance); assay type: in vivo; conditions: three tumor models in mice, edema observed
Experimental: as §1, with “respectively. The toxicity of these drugs in mice was mild as determined by body weight loss and animal appearance.” for “respectively.”
Efficacies of KS119W and KS119 were compared with equivalence molar doses in EMT-6 tumor and H460 tumor models. KS119W was formulated with 0.25M sodium bicarbonate solution. The treatment was started when tumors researched 150 to 200 mm^3, and lasted up to 2 weeks. KS119 at doses of 80 and 100 mg/kg and KS119W at doses of 97.6 and 121.3 mg/kg were daily administrated into mice via ip injection. […] The toxicity of KS119 and KS119W were dose-dependent. To assess the toxicity of treatment, body weight and peripheral blood cell count were monitored after treatment.
as §4, with “KS119W. […] The inhibition of combination therapy was statistically significant against all control groups with p values of 0.003, 0.015 and 0.038, respectively. Additive toxicity at the doses used for combination was manageable; while the 180 mg/kg qw ×4 doses of KS119W alone caused a maximum net body weight loss of 4.5%, the same dose in combination with 4 doses of CTX at 100 mg/kg per week caused 8.6% weight loss but no death. A similar degree of growth inhibition was also observed with EMT-6 tumor model. […]” for “KS119W.”

C[C@@H](OC(=O)N(N(CCCl)S(C)(=O)=O)S(C)(=O)=O)c1ccc([N+](=O)[O-])c(OP(=O)(O)O)c1 [VNP40541]
Inhibition (%) [1]: 58-69%
Inhibition (%) [2]: 52-80%
toxicity compared between the enantiomers [3]: lower toxicity, particularly having less edema observed

Source: patent US7405317B2, “Phosphate-bearing prodrugs of sulfonyl hydrazines as hypoxia-selective antineoplastic agents” (priority 2004, dated 2008)
